Laboratory results from patent publication US6346535B1, “Fungicidal mixtures” (American Cyanamid Company, priority 1999, dated 2002).
Read-outs that look alike come from different tables or passages of the source.

Tests used:
Type in all cases: in vivo
[1] = system: Pyrenophora teres on barley; assay: Greenhouse trial, 4 day residual, Pyrenophora teres on barley; conditions: for pest or weed control at 2 ppm / pest or weed control at 10 ppm / pest or weed control at 0.4 ppm / pest or weed control at 50 ppm: Pyrenophora teres, 96 h, read-out: Observed Efficacy
Excerpt: (§1) The fungicides are applied in single treatments, or in a combination comprising a benzophenone of formula I and a compound selected from (A) through (E) as defined above. The compounds are applied in form of an aqueous spray mix obtained from a concentrated formulation or the technical material.
(§2) 1. Seed is planted in 6 cm diameter plastic pots and maintained in the greenhouse.
(§3) 2. When the primary leaf is fully expanded (in the case of cereals) or several leaves are present (in the case of dicots), formulated test compounds are sprayed with a three nozzle overhead fungicide sprayer to near run-off. Alternatively, a single nozzle overhead track sprayer is used for application of the compounds to cereals at a rate of 200 liters/ha (l/ha). Plants are then allowed to air-dry.
(§4) 3. Inoculation precedes treatment in the case of curative evaluations and follows treatment in case of residual evaluations. For inoculation of powdery mildew disease, plants are set up on greenhouse benches with bottom watering mats and inoculated by dusting them with conidia from infected plants. Between inoculation and treatment for curative evaluations and between treatment and inoculation for residual evaluations, plants are maintained in the greenhouse with bottom watering. For inoculation of non-powdery mildew diseases, an aqueous spore suspension of the pathogen is applied to the plant and the plants are kept 1-2 days in a moist infection chamber before being returned to the greenhouse where they are maintained by bottom watering.
(§5) 4. Disease on the foliage as percent leaf area with disease symptoms/signs is evaluated about 7 days after inoculation. In the case of wheat, the tips and bases of the leaves are excluded from the evaluation. [formula]
(§6) 1. Technical compounds are formulated in a solvent/surfactant system consisting of 5% acetone and 0.05% Tween 20 in deionized water. Compounds are dissolved in acetone prior to addition of the water; the Tween 20 can be added through either the acetone or the water. Dilutions are made using the solvent/surfactant system. Formulated compounds are prepared using deionized water.
(§7) Assessments of the diseases took place at the indicated day after the application of the compounds. Per cent infected leaf area infected was evaluated. The efficacy of the compounds/compounds mixtures to control the diseases was calculated by using the formula given above under item 4: […]
(§8) Synergy of a fungicide mixture was determined by comparing the actual (observed) fungicidal activity of the mixture to the expected fungicidal activity of the mixture as calculated using the COLBY formula given hereinabove.
Fungicidal Efficacy of the Mixture of BP-4+Other Fungicides (4 Day Residual) Against Pyrenophora teres on Barley

[2] = system: Erysiphe cichoracearum on cucumbers; assay: Greenhouse trial, 4 day residual, Erysiphe cichoracearum on cucumbers; conditions: for pest or weed control at 0.4 ppm / pest or weed control at 10 ppm / pest or weed control at 2 ppm / pest or weed control at 50 ppm: Golovinomyces cichoracearum, 96 h, read-out: Observed Efficacy
Excerpt: as §1, §2, §3, §4, §5, §6, §7, §8

[3] = system: Puccinia recondita on wheat; assay: Greenhouse trial, 4 day residual, Puccinia recondita on wheat
Excerpt: as §1, §2, §3, §4, §5, §6, §7, §8
Fungicidal Efficacy of the Mixture of BP-4+Other Fungicides (4 Day Residual) Against Puccinia recondita on Wheat
Fungicidal Efficacy of the Mixture of BP-4+Myclobutanil (4 Day Residual) Against Puccinia recondita on Wheat

[4] = system: Leptosphaeria nodorum on wheat; assay: Greenhouse trial, 4 day residual, Leptosphaeria nodorum on wheat; conditions: Table VIII, compound alone
Excerpt: as §1, §2, §3, §4, §5, §6, §7, §8
Fungicidal Efficacy of the Mixture of BP-4+Other Fungicides (4 Day Residual) Against Leptosphaeria nodorum on Wheat

[5] = Table XIII (Example 13), 4 day residual, dose rate 0.4 ppm
[6] = Table XIII (Example 13), 4 day residual, dose rate 2 ppm
[7] = Table XIII (Example 13), 4 day residual, dose rate 10 ppm
[8] = Table XIII (Example 13), 4 day residual, dose rate 50 ppm
[9] = Table XVI (Example 16), 4 day residual, dose rate 2 ppm
[10] = Table XVI (Example 16), 4 day residual, dose rate 10 ppm
[11] = Table XIV (Example 14), 4 day residual, dose rate 0.4 ppm
[12] = Table XIV (Example 14), 4 day residual, dose rate 10 ppm
[13] = Puccinia recondita, 96 h, Table XV (Example 15), 4 day residual, dose rate 0.4 ppm, read-out: Observed Efficacy
[14] = Puccinia recondita, 96 h, Table XV (Example 15), 4 day residual, dose rate 2 ppm, read-out: Observed Efficacy
[15] = Table XIV (Example 14), 4 day residual, dose rate 2 ppm
[16] = Table XIV (Example 14), 4 day residual, dose rate 50 ppm
[17] = Puccinia recondita, 96 h, Table XV (Example 15), 4 day residual, dose rate 10 ppm, read-out: Observed Efficacy
[18] = Puccinia recondita, 96 h, Table XV (Example 15), 4 day residual, dose rate 50 ppm, read-out: Observed Efficacy
[19] = Table XVI (Example 16), 4 day residual, dose rate 0.4 ppm
[20] = Table XI, compound alone, dose rate 0.4 ppm
[21] = Table XI, compound alone, dose rate 2 ppm
[22] = Table XI, compound alone, dose rate 10 ppm
[23] = Table XI, compound alone, dose rate 50 ppm
[24] = Puccinia recondita, 96 h, read-out: Observed Efficacy
[25] = Table XVI (Example 16), 4 day residual, dose rate 50 ppm
[26] = Table VI, compound alone, dose rate 4 ppm
[27] = Table VI, compound alone, dose rate 16 ppm
[28] = Table VI, compound alone, dose rate 64 ppm
[29] = Table VI, compound alone, dose rate 256 ppm
[30] = Table VII, compound alone, dose rate 4 ppm
[31] = Table VII, compound alone, dose rate 16 ppm
[32] = Table VII, compound alone, dose rate 64 ppm
[33] = Table VII, compound alone, dose rate 256 ppm

Molecule: [Cl-].[Cu+2].[Cu+2].[OH-].[OH-].[OH-] [Copper oxychloride]
- Observed Efficacy [1, 5]: 0
- Observed Efficacy [1, 6]: 0
- Observed Efficacy [1, 7]: 14
- Observed Efficacy [1, 8]: 14

Molecule: CC(C1CC1)C(O)(Cn1cncn1)c1ccc(Cl)cc1 (stereo not shown) [Cyproconazole]
- pest or weed control at 2 ppm [1, 9]: 4%
- pest or weed control at 10 ppm [1, 10]: 1%
- pest or weed control at 0.4 ppm [2, 11]: 19%
- pest or weed control at 10 ppm [2, 12]: 68%
- pest or weed control at 0.4 ppm [3, 13]: 88%
- pest or weed control at 2 ppm [3, 14]: 99%

Molecule: OC(c1ccc(Cl)cc1)(c1cncnc1)c1ccccc1Cl (stereo not shown) [Fenarimol]
- pest or weed control at 2 ppm [1, 9]: 0%
- pest or weed control at 10 ppm [1, 10]: 4%
- pest or weed control at 0.4 ppm [2, 11]: 5%
- pest or weed control at 2 ppm [2, 15]: 34%
- pest or weed control at 10 ppm [2, 12]: 42%
- pest or weed control at 50 ppm [2, 16]: 67%
- pest or weed control at 0.4 ppm [3, 13]: 0%
- pest or weed control at 2 ppm [3, 14]: 9%
- pest or weed control at 10 ppm [3, 17]: 23%
- pest or weed control at 50 ppm [3, 18]: 90%

Molecule: CC(Cc1ccc(C(C)(C)C)cc1)CN1C[C@@H](C)O[C@@H](C)C1 (stereo partly shown) [Fenpropimorph]
- pest or weed control at 0.4 ppm [1, 19]: 0%
- pest or weed control at 2 ppm [1, 9]: 0%
- pest or weed control at 10 ppm [1, 10]: 3%
- pest or weed control at 0.4 ppm [2, 11]: 0%
- pest or weed control at 2 ppm [2, 15]: 0%
- pest or weed control at 10 ppm [2, 12]: 7%
- pest or weed control at 0.4 ppm [3, 13]: 2%
- pest or weed control at 2 ppm [3, 14]: 15%
- pest or weed control at 50 ppm [3, 18]: 60%

Molecule: CO/N=C(/C(=O)OC)c1ccccc1COc1ccccc1C [Kresoxim-methyl]
- pest or weed control at 0.4 ppm [1, 5]: 0%
- pest or weed control at 2 ppm [1, 6]: 21%
- pest or weed control at 0.4 ppm [2, 20]: 2%
- pest or weed control at 2 ppm [2, 21]: 14%
- pest or weed control at 10 ppm [2, 22]: 88%
- pest or weed control at 50 ppm [2, 23]: 100%

Molecule: CCCCC(C#N)(Cn1cncn1)c1ccc(Cl)cc1 (stereo not shown) [Myclobutanil]
- pest or weed control at 0.4 ppm [1, 5]: 0%
- pest or weed control at 2 ppm [1, 6]: 21%
- pest or weed control at 10 ppm [1, 7]: 40%
- pest or weed control at 50 ppm [1, 8]: 82%
- pest or weed control at 0.4 ppm [2, 20]: 36%
- pest or weed control at 2 ppm [2, 21]: 52%
- pest or weed control at 10 ppm [2, 22]: 73%
- pest or weed control at 50 ppm [2, 23]: 96%
- pest or weed control at 0.4 ppm ([3]; Puccinia recondita, 96 h, Table XII, compound alone, dose rate 0.4 ppm, read-out: Observed Efficacy): 13%
- pest or weed control at 2 ppm ([3]; Puccinia recondita, 96 h, Table XII, compound alone, dose rate 2 ppm, read-out: Observed Efficacy): 52%
- pest or weed control at 10 ppm ([3]; Puccinia recondita, 96 h, Table XII, compound alone, dose rate 10 ppm, read-out: Observed Efficacy): 72%
- pest or weed control at 50 ppm ([3]; Puccinia recondita, 96 h, Table XII, compound alone, dose rate 50 ppm, read-out: Observed Efficacy): 99%

Molecule: CCCN(CCOc1c(Cl)cc(Cl)cc1Cl)C(=O)n1ccnc1 [Prochloraz]
- pest or weed control at 0.4 ppm [1]: 8%
- pest or weed control at 2 ppm [1]: 19%
- pest or weed control at 10 ppm [1]: 48%
- pest or weed control at 0.4 ppm [2]: 0%
- pest or weed control at 2 ppm [2]: 0%
- pest or weed control at 10 ppm [2]: 1%
- pest or weed control at 50 ppm [2]: 18%
- pest or weed control at 0.4 ppm [3, 24]: 0%
- pest or weed control at 2 ppm [3, 24]: 0%
- pest or weed control at 16 ppm [3, 24]: 1%
- pest or weed control at 50 ppm [3, 24]: 14%

Molecule: CON=C(Cc1cccnc1)c1ccc(Cl)cc1Cl [Pyrifenox]
- pest or weed control at 0.4 ppm [1, 19]: 0%
- pest or weed control at 2 ppm [1, 9]: 0%
- pest or weed control at 50 ppm [1, 25]: 15%
- pest or weed control at 0.4 ppm [2, 11]: 0%
- pest or weed control at 2 ppm [2, 15]: 0%
- pest or weed control at 10 ppm [2, 12]: 1%
- pest or weed control at 50 ppm [2, 16]: 20%
- pest or weed control at 0.4 ppm [3, 13]: 0%
- pest or weed control at 2 ppm [3, 14]: 0%
- pest or weed control at 10 ppm [3, 17]: 1%
- pest or weed control at 50 ppm [3, 18]: 6%

Molecule: CCCN(CC)CC1COC2(CCC(C(C)(C)C)CC2)O1 (stereo not shown) [Spiroxamine]
- pest or weed control at 0.4 ppm [1, 19]: 0%
- pest or weed control at 2 ppm [1, 9]: 3%
- pest or weed control at 10 ppm [1, 10]: 5%
- pest or weed control at 50 ppm [1, 25]: 16%
- pest or weed control at 0.4 ppm [2, 11]: 0%
- pest or weed control at 2 ppm [2, 15]: 0%
- pest or weed control at 10 ppm [2, 12]: 2%
- pest or weed control at 2 ppm [3, 14]: 0%
- pest or weed control at 10 ppm [3, 17]: 4%
- pest or weed control at 50 ppm [3, 18]: 17%

Molecule: S1SSSSSSS1 [Sulfur organic, Sulfur]
- pest or weed control at 2 ppm [1, 6]: 0%
- pest or weed control at 10 ppm [1, 7]: 0%
- pest or weed control at 0.4 ppm [2, 20]: 0%
- pest or weed control at 2 ppm [2, 21]: 0%
- pest or weed control at 10 ppm [2, 22]: 7%
- pest or weed control at 50 ppm [2, 23]: 0%

Molecule: Cyprodinil
- Observed Efficacy ([4]; dose rate 4 ppm): 0%
- Observed Efficacy ([4]; dose rate 16 ppm): 75%
- Observed Efficacy ([4]; dose rate 64 ppm): 88%
- Observed Efficacy ([4]; dose rate 256 ppm): 93%
- Observed Efficacy [2, 26]: 0%
- Observed Efficacy [2, 27]: 0%
- Observed Efficacy [2, 28]: 0%
- Observed Efficacy [2, 29]: 15%
- Observed Efficacy [3, 30]: 0%
- Observed Efficacy [3, 31]: 0%
- Observed Efficacy [3, 32]: 0%
- Observed Efficacy [3, 33]: 0%

Molecule: Dinocap
- Observed Efficacy [1, 19]: 0
- Observed Efficacy [1, 9]: 0
- Observed Efficacy [1, 10]: 5
- Observed Efficacy [2, 11]: 0
- Observed Efficacy [2, 15]: 0
- Observed Efficacy ([3]; Table XV (Example 15), 4 day residual, dose rate 0.4 ppm): 4
- Observed Efficacy ([3]; Table XV (Example 15), 4 day residual, dose rate 2 ppm): 13
- Observed Efficacy ([3]; Table XV (Example 15), 4 day residual, dose rate 10 ppm): 23

Molecule: Mancozeb
- Observed Efficacy ([4]; dose rate 4 ppm): 0%
- Observed Efficacy ([4]; dose rate 16 ppm): 21%
- Observed Efficacy ([4]; dose rate 64 ppm): 47%
- Observed Efficacy ([4]; dose rate 256 ppm): 69%
- Observed Efficacy [2, 26]: 0%
- Observed Efficacy [2, 27]: 0%
- Observed Efficacy [2, 28]: 1%
- Observed Efficacy [2, 29]: 33%
- Observed Efficacy [3, 30]: 0%
- Observed Efficacy [3, 31]: 0%
- Observed Efficacy [3, 32]: 28%
- Observed Efficacy [3, 33]: 91%

Molecule: Propiconazole
- Observed Efficacy [1, 5]: 0
- Observed Efficacy [1, 6]: 0
- Observed Efficacy [1, 7]: 38
- Observed Efficacy [1, 8]: 74
- Observed Efficacy [2, 20]: 0%
- Observed Efficacy [2, 21]: 19%
- Observed Efficacy [2, 22]: 76%
- Observed Efficacy [2, 23]: 96%

Molecule: Quinoxyfen
- Observed Efficacy ([4]; dose rate 16 ppm): 1%
- Observed Efficacy ([4]; dose rate 64 ppm): 0%
- Observed Efficacy ([4]; dose rate 256 ppm): 18%
- Observed Efficacy [2, 26]: 90%
- Observed Efficacy [2, 27]: 100%
- Observed Efficacy [2, 28]: 100%
- Observed Efficacy [2, 29]: 100%
- Observed Efficacy [3, 30]: 0%
- Observed Efficacy [3, 31]: 0%
- Observed Efficacy [3, 32]: 0%
- Observed Efficacy [3, 33]: 0%
